From patent US20080038359A1, “Stable Nanoparticle Formulations” (SANOFI-AVENTIS U.S. LLC, priority 2005, published 2008)

Legend:
[1] = Solubility of Compound B in soy oil, estimated visually; assay type: physicochemical; details: oil or lipid, thermodynamic from solid; visual estimate by gradual addition of soy oil
Experimental: The solubility of Compound B in soy oil was initially estimated visually by gradual addition of soy oil to a weighed amount of the drug substance until the oil was almost clear (visually). An estimate of the drug substance in oil was calculated from the total amount of oil added.

[2] = generally known; cited from earlier work

SMILES | solubility [1] | solubility in oils [2]
Cn1c2ccc(F)cc2c2c(C(=O)N3CCCC3)cn(-c3ccccc3)c(=O)c21 [Compound B, 6-Fluoro-9-methyl-2-phenyl-4-(pyrrolidin-1-ylcarbonyl)-2,9-dihydro-1H-pyrido[3,4-b]indol-1-one] | < 1000 µg/mL | –
CCCCc1oc2ccc(C(=O)OC(C)C)cc2c1C(=O)c1ccc(CCCN(CCCC)CCCC)cc1.O=C(O)/C=C/C(=O)O [Compound C, Isopropyl 2-butyl-3-[4-[3-(dibutylamino)propyl]benzoyl]-1-benzofuran-5-carboxylate fumarate] | – | low solubility
